In US20240410877A1, “SYSTEMS AND METHODS FOR MIXED MULTIPLE CELL LINE SCREENING USING ENDOGENOUS SINGLE NUCLEOTIDE POLYMORPHISM (SNP)-BASED CELL LINE IDENTIFICATION” (University of Kentucky Research Foundation, priority 2023, published 2024):

Legend:
Type in all cases: cell-based, human
c-Myc = experiment: Western blot of c-Myc expression in liver cancer cells; details: C3A cells, 1 μM DEDA vs DMSO
Description: Cells were grown in six-well plates and lysed in 0.5 mL/well lysis buffer (50 mM HEPES, 100 mM NaCl, 2 mM EDTA, 1% glycerol, 50 mM NaF, 1 mM Na3VO4, 1% Triton X-100, with protease inhibitors). Cell lysates were separated by a 10% SDS-PAGE gel and transferred to an Immobilon PVDF membrane. The protein levels of c-Myc and GAPDH (loading control) were analyzed using antibodies that recognize c-Myc (Epitomics, #1472-1) and GAPDH (GeneTex, #627408).

Huh7 = experiment: Cell proliferation assay of single cell line; details: Huh7, 1 μM, 30 h
Description: (§1) The liver cancer cell lines, Huh7, C3A, PLC/PRF/5, SNU449, SNU475 and SK-Hep1, were purchased from the American Type Culture Collection (ATCC). The cells were cultured in DMEM (ATCC®30-2002) containing 10% (v/v) Fetal Bovine Serum (FBS) (Sigma F0926) and grown in an incubator at 37° C. with 5% CO2. The halogenated diarylacetylene, 4-((2,6-difluorophenyl) ethynyl)-N,N-dimethylaniline (DEDA), was synthesized and characterized as previously described.^18,19
(§2) For proliferation assays of single cell line, cells were seeded in 12-well plates (2×10^5 cells per well) and incubated overnight. The following day, DEDA (1 μM solution in DMSO) was added to each well with DMSO alone as a control. Each experiment was performed in quadruplicate. After 30 h, cells were analyzed under a reverse microscope. Cell viability and number were analyzed using the Vi-Cell XR Cell Viability Analyzer (Beckman Coulter).

SK-Hep1 = experiment: Cell proliferation assay of single cell line; details: SK-Hep1, 1 μM, 30 h
Description: as §1, §2

SNU475 = experiment: Cell proliferation assay of single cell line; details: SNU475, 1 μM, 30 h
Description: as §1, §2

SNU449 = experiment: Cell proliferation assay of single cell line; details: SNU449, 1 μM, 30 h
Description: as §1, §2

PLC/PRF/5 = experiment: Cell proliferation assay of single cell line; details: PLC/PRF/5, 1 μM, 30 h
Description: as §1, §2

C3A = experiment: Cell proliferation assay of single cell line; details: 1 μM, 30 h
Description: as §1, §2

CN(C)c1ccc(C#Cc2c(F)cccc2F)cc1 [DEDA, 4-((2,6-difluorophenyl)ethynyl)-N,N-dimethylaniline]
c-Myc expression (c-Myc): inhibited c-Myc expression | sensitivity in cell proliferation assay (Huh7): DEDA-sensitive | sensitivity in cell proliferation assay (SK-Hep1): resistant | sensitivity in cell proliferation assay (SNU475): resistant | sensitivity in cell proliferation assay (SNU449): resistant | sensitivity in cell proliferation assay (PLC/PRF/5): resistant | sensitivity in cell proliferation assay (C3A): DEDA-sensitive
